# Laboratory results reported in the supplement of paper PMC10307832.
# Key:
# Assay in all cases: relative viability (nuclei count vs DMSO), 5 days (fraction); higher = more cells survive
# Ruxolitinib + Dasatinib = compound: N#CC[C@H](C1CCCC1)n1cc(-c2ncnc3[nH]ccc23)cn1 [Ruxolitinib] + Cc1nc(Nc2ncc(C(=O)Nc3c(C)cccc3Cl)s2)cc(N2CCN(CCO)CC2)n1 [Dasatinib] (partner 0.075 µM)
# Summary of the method: (§1)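 Lung cancer cell lines were seeded in 1536-well plates and dosed by pin tool the next day, with either a single drug or a fixed anchor-drug dose combined with five library-drug doses (not always all listed) spaced in √10 steps. Five days later, one step fixed the cells and stained their nuclei (final 0.05% Triton X-100, 1% formaldehyde, 1 ug/ml Hoechst), and nuclei were counted on 4× images. Relative viability is the nuclei count in treated wells divided by the count in vehicle wells, and each value is the median of duplicate plates.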
# Vismodegib + Lapatinib = compound: CS(=O)(=O)c1ccc(C(=O)Nc2ccc(Cl)c(-c3ccccn3)c2)c(Cl)c1 [Vismodegib] + CS(=O)(=O)CCNCc1ccc(-c2ccc3ncnc(Nc4ccc(OCc5cccc(F)c5)c(Cl)c4)c3c2)o1 [Lapatinib] (partner 2 µM)
# Summary of the method: as §1
# Vismodegib + Crizotinib = compound: CS(=O)(=O)c1ccc(C(=O)Nc2ccc(Cl)c(-c3ccccn3)c2)c(Cl)c1 [Vismodegib] + C[C@@H](Oc1cc(-c2cnn(C3CCNCC3)c2)cnc1N)c1c(Cl)ccc(F)c1Cl [Crizotinib] (partner 1 µM)
# Summary of the method: as §1
Cell Line,relative viability (Ruxolitinib + Dasatinib; first compound 0.08 µM),relative viability (Ruxolitinib + Dasatinib; first compound 0.253 µM),relative viability (Ruxolitinib + Dasatinib; first compound 0.8 µM),relative viability (Ruxolitinib + Dasatinib; first compound 2.53 µM),relative viability (Ruxolitinib + Dasatinib; first compound 8 µM),relative viability (Vismodegib + Lapatinib; first compound 0.08 µM),relative viability (Vismodegib + Lapatinib; first compound 0.253 µM),relative viability (Vismodegib + Lapatinib; first compound 0.8 µM),relative viability (Vismodegib + Lapatinib; first compound 2.53 µM),relative viability (Vismodegib + Lapatinib; first compound 8 µM),relative viability (Vismodegib + Crizotinib; first compound 0.08 µM),relative viability (Vismodegib + Crizotinib; first compound 0.253 µM),relative viability (Vismodegib + Crizotinib; first compound 0.8 µM),relative viability (Vismodegib + Crizotinib; first compound 2.53 µM),relative viability (Vismodegib + Crizotinib; first compound 8 µM)
HCC-15,0.661,0.492,0.675,0.439,0.286,0.883,0.854,0.823,0.882,0.74,0.782,0.859,0.889,0.879,0.83
EKVX,0.523,0.603,0.481,0.519,0.366,0.21,0.223,0.164,0.243,0.197,0.849,0.895,0.898,1.09,0.952
NCI-H1792,0.664,0.664,0.675,0.541,0.466,0.851,0.97,0.872,0.79,0.878,0.93,0.939,0.976,0.986,0.907
PC-14,,0.334,0.349,0.155,0.0674,0.273,0.338,0.29,0.337,0.337,0.835,0.777,0.971,0.914,0.839
NCI-H650,,0.366,0.453,0.295,0.293,0.967,0.695,0.623,0.841,0.899,0.61,0.702,0.687,0.809,0.865
NCI-H1650,,0.265,0.343,0.252,0.29,0.704,0.767,0.666,0.806,0.748,0.884,0.904,0.97,0.932,0.918
NCI-H1355,0.711,0.532,0.579,0.522,0.36,0.93,0.923,0.844,0.951,0.957,1.04,0.995,1.02,1.07,1.09
HOP-62,0.698,0.588,0.739,0.557,0.342,0.981,0.891,0.934,1.04,0.926,0.991,0.905,0.867,0.503,0.908
NCI-H3122,0.852,0.725,0.932,0.634,0.286,0.987,1.06,0.982,0.897,0.936,0.307,0.286,0.255,0.295,0.268
NCI-H1437,0.294,0.363,0.354,0.458,0.236,0.741,0.791,0.783,0.816,0.762,0.876,0.912,0.902,0.934,0.931
BEN,0.319,0.311,0.377,0.292,0.335,0.77,0.718,0.778,0.844,0.733,0.779,0.927,0.807,0.934,0.986
NCI-H520,0.239,,0.183,0.159,0.163,0.856,0.921,0.977,0.844,1.01,0.854,0.662,0.714,0.679,0.896
NCI-H2087,0.836,0.661,0.675,0.431,0.52,0.872,0.856,1.12,1.07,0.863,0.834,0.906,0.713,0.797,0.908
NCI-H2347,0.295,0.341,0.297,0.29,0.333,0.962,0.989,0.901,0.808,0.938,0.691,0.713,0.64,0.582,0.656
NCI-H838,0.253,0.251,0.286,0.211,0.211,0.888,1.01,0.987,0.99,1.09,0.816,0.787,0.885,0.821,0.848
LXF-289,0.192,0.191,0.216,0.135,0.0782,0.912,0.894,0.916,0.962,0.875,0.806,0.772,0.816,0.745,0.781
LC-2-ad,,0.476,0.54,0.382,0.272,0.917,0.963,0.993,0.943,0.954,0.419,0.477,0.434,0.37,0.469
NCI-H2085,0.278,0.268,0.282,0.293,0.299,0.764,0.809,0.71,0.751,0.81,0.867,0.873,0.854,0.826,0.83
